Data published in US11414436B2, “Non-coordinating anion type activators containing cation having large alkyl groups” (ExxonMobil Chemical Patents Inc., priority 2018, dated 2022).

Columns and labels:
[1] = Solubility studies of the activators (saturated solution in isohexane or methylcyclohexane); type: physicochemical; settings: for Solubility limit in i-hexane (mM at 25° C.) / Solubility limit in i-hexane (wt % at 25° C.): isohexane; for Solubility limit in MeCy (mM at 25° C.): methylcyclohexane
Procedure: Solubility Studies of the Activators
Procedure for Solid Activators.
A saturated solution of each of the solid ammonium borate activators was prepared by stirring an excess of the activator with either isohexane or methylcyclohexane solvent for several hours at 25° C. The mixture was then filtered and a known volume of the filtrate was evaporated to dryness in a tared vial. The vial was then weighed to determine the mass of activator that was dissolved in the aliquot. The concentration of the saturated solution is presented in millimoles of activator per liter of solution (mM).
Procedure for Activators that Form Emulsions.
A saturated solution of the activator was prepared by slowly adding the solvent to a pre-weighed amount of the activator. The final volume was determined as the minimum amount of solvent required to convert the emulsion into a homogeneous solution. The concentration of the saturated solution is presented in millimoles of activator per liter of solution (mM). Alternatively, an emulsion of the activator was prepared by adding the solvent to an excess amount of activator. The resulting emulsion was separated from the undissolved solids by decanting the emulsion into a tared vial. Solvent was then added dropwise until the emulsion became homogeneous. The mass of the final solution was measured and then the solvent was evaporated to dryness to obtain the mass of the activator. The concentration of the saturated solution is presented in millimoles of activator per liter of solution (mM).

[2] = as above; type: physicochemical; settings: methylcyclohexane

## CCCCCCCCCCCCCCCCCCc1ccc([NH+](C)C)cc1.Fc1c(F)c(F)c2c(F)c([B-](c3c(F)c(F)c4c(F)c(F)c(F)c(F)c4c3F)(c3c(F)c(F)c4c(F)c(F)c(F)c(F)c4c3F)c3c(F)c(F)c4c(F)c(F)c(F)c(F)c4c3F)c(F)c(F)c2c1F [OdDMAH-BF28, N,N-dimethyl-4-octadecylbenzenaminium-BF28]
[1]
  Solubility limit in i-hexane (mM at 25° C.): <0.1 mM
  Solubility limit in i-hexane (wt % at 25° C.): <0.1 wt %
  Solubility limit in MeCy (mM at 25° C.): 1.9 mM
[2]
  Solubility limit in MeCy (wt % at 25° C.): 0.3 wt %

## CCCCCCCCCCCCCCCCCC[NH+](CCCCCCCCCCCCCCCCCC)c1ccccc1C(C)C.Fc1c(F)c(F)c2c(F)c([B-](c3c(F)c(F)c4c(F)c(F)c(F)c(F)c4c3F)(c3c(F)c(F)c4c(F)c(F)c(F)c(F)c4c3F)c3c(F)c(F)c4c(F)c(F)c(F)c(F)c4c3F)c(F)c(F)c2c1F [DOdPAH-BF28, 2-isopropyl-N,N-dioctadecylbenzenaminium-BF28]
[1]
  Solubility limit in i-hexane (mM at 25° C.): 2.9 mM
  Solubility limit in i-hexane (wt % at 25° C.): 1.9 wt %
  Solubility limit in MeCy (mM at 25° C.): > 200 mM
[2]
  Solubility limit in MeCy (wt % at 25° C.): >40 wt %

## CCCCCCCCCC[NH+](CCCCCCCCCC)c1ccc(C)cc1.Fc1c(F)c(F)c2c(F)c([B-](c3c(F)c(F)c4c(F)c(F)c(F)c(F)c4c3F)(c3c(F)c(F)c4c(F)c(F)c(F)c(F)c4c3F)c3c(F)c(F)c4c(F)c(F)c(F)c(F)c4c3F)c(F)c(F)c2c1F [DDTH-BF28, N,N-didecyl-4-methylanilinium-BF28]
[1]
  Solubility limit in i-hexane (mM at 25° C.): 1.8 mM
  Solubility limit in i-hexane (wt % at 25° C.): 0.35 wt %
  Solubility limit in MeCy (mM at 25° C.): 3.7 mM
[2]
  Solubility limit in MeCy (wt % at 25° C.): 0.63 wt %

## CCCCCCCCCC[NH+](C)c1ccccc1.Fc1c(F)c(F)c([B-](c2c(F)c(F)c(F)c(F)c2F)(c2c(F)c(F)c(F)c(F)c2F)c2c(F)c(F)c(F)c(F)c2F)c(F)c1F [MDAH-BF20, N-decyl-N-methylanilinium-BF20]
[1]
  Solubility limit in i-hexane (mM at 25° C.): 1.3 mM
  Solubility limit in i-hexane (wt % at 25° C.): 0.18 wt %
  Solubility limit in MeCy (mM at 25° C.): 1.4 mM
[2]
  Solubility limit in MeCy (wt % at 25° C.): 0.17 wt %

## CCCCCCCCCC[NH+](C)c1ccccc1.Fc1c(F)c(F)c2c(F)c([B-](c3c(F)c(F)c4c(F)c(F)c(F)c(F)c4c3F)(c3c(F)c(F)c4c(F)c(F)c(F)c(F)c4c3F)c3c(F)c(F)c4c(F)c(F)c(F)c(F)c4c3F)c(F)c(F)c2c1F [MDAH-BF28, N-decyl-N-methylanilinium-BF28]
[1]
  Solubility limit in i-hexane (mM at 25° C.): 0.9 mM
  Solubility limit in i-hexane (wt % at 25° C.): 0.12 wt %
  Solubility limit in MeCy (mM at 25° C.): 1.7 mM
[2]
  Solubility limit in MeCy (wt % at 25° C.): 0.21 wt %

## CCCCCCCCCC[NH+](CCCCCCCCCC)c1ccc(CCCC)cc1.Fc1c(F)c(F)c([B-](c2c(F)c(F)c(F)c(F)c2F)(c2c(F)c(F)c(F)c(F)c2F)c2c(F)c(F)c(F)c(F)c2F)c(F)c1F [DDBAH-BF20, 4-butyl-N,N-didecylbenzenaminium-BF20]
[1]
  Solubility limit in i-hexane (mM at 25° C.): 2.0 mM
  Solubility limit in i-hexane (wt % at 25° C.): 0.32 wt %
  Solubility limit in MeCy (mM at 25° C.): 21 mM
[2]
  Solubility limit in MeCy (wt % at 25° C.): 3.0 wt %

## CCCCCCCCCCCCCCCCCCc1ccc([NH+](C)C)cc1.Fc1c(F)c(F)c([B-](c2c(F)c(F)c(F)c(F)c2F)(c2c(F)c(F)c(F)c(F)c2F)c2c(F)c(F)c(F)c(F)c2F)c(F)c1F [OdDMAH-BF20, N,N-dimethyl-4-octadecylbenzenaminium-BF20]
[1]
  Solubility limit in i-hexane (mM at 25° C.): 0.8 mM
  Solubility limit in i-hexane (wt % at 25° C.): 0.10 wt %
  Solubility limit in MeCy (mM at 25° C.): 7.9 mM
[2]
  Solubility limit in MeCy (wt % at 25° C.): 1.1 wt %

## CCCCCCCCCCCCCCCCCC[NH+](CCCCCCCCCCCCCCCCCC)c1ccccc1C.Fc1c(F)c(F)c2c(F)c([B-](c3c(F)c(F)c4c(F)c(F)c(F)c(F)c4c3F)(c3c(F)c(F)c4c(F)c(F)c(F)c(F)c4c3F)c3c(F)c(F)c4c(F)c(F)c(F)c(F)c4c3F)c(F)c(F)c2c1F [DOdoTH-BF28, 2-methyl-N,N-dioctadecylbenzenaminium-BF28]
[1]
  Solubility limit in i-hexane (mM at 25° C.): 3.0 mM
  Solubility limit in i-hexane (wt % at 25° C.): 0.73 wt %
  Solubility limit in MeCy (mM at 25° C.): >190 mM
[2]
  Solubility limit in MeCy (wt % at 25° C.): >40 wt %

## CCCCCCCCCC[NH+](CCCCCCCCCC)c1ccc(C)cc1.Fc1c(F)c(F)c([B-](c2c(F)c(F)c(F)c(F)c2F)(c2c(F)c(F)c(F)c(F)c2F)c2c(F)c(F)c(F)c(F)c2F)c(F)c1F [DDTH-BF20, N,N-didecyl-4-methylanilinium-BF20]
[1]
  Solubility limit in i-hexane (mM at 25° C.): 1.5 mM
  Solubility limit in i-hexane (wt % at 25° C.): 0.22 wt %
  Solubility limit in MeCy (mM at 25° C.): 1.7 mM
[2]
  Solubility limit in MeCy (wt % at 25° C.): 0.21 wt %
